Converted amounts (≈) assume the structure as drawn.
Legend:
[1] = system: ST512/KPC-31 mutant IMI 2.1; assay: MIC, broth microdilution; type: cell-based; settings: Klebsiella pneumoniae
[2] = system: ST258/KPC-35 mutant IMI 3.2; assay: MIC, broth microdilution; type: cell-based; settings: Klebsiella pneumoniae
[3] = system: K. pneumoniae ST512/KPC-31; assay: In vitro resistance dynamics (stepwise, 7 days); type: cell-based, Klebsiella pneumoniae; settings: stepwise resistance development, MH broth, up to 64× MIC
[4] = system: K. pneumoniae ST512/KPC-31 (KPC-3 D179Y) parental clinical isolate; assay: MIC, broth microdilution; type: cell-based; settings: Klebsiella pneumoniae
[5] = system: K. pneumoniae ST512/KPC-31 (KPC-3 D179Y); assay: Single-step mutant frequencies and mutant prevention concentrations; type: cell-based, Klebsiella pneumoniae; settings: for Imipenem mutant frequency: MH agar, 48 h
Procedure: (§1) The plates were incubated for 48 h at 37°C before the frequency of resistance emergence was calculated as the ratio of the number of colony forming units (CFUs) grown on the antibiotic-containing plate and the number of CFUs on antibiotic-free plates. Mutant prevention concentrations were defined as the lowest concentration of antibiotic combination for which there were zero colonies on all agar plates ([23]). All determinations were conducted in triplicate.

[6] = system: K. pneumoniae ST258/KPC-35 (KPC-2 L169P); assay: as above; type: cell-based, Klebsiella pneumoniae; settings: for Imipenem mutant frequency: MH agar, 48 h
Procedure: as §1

[7] = system: ST512/KPC-31 mutant IMI 3.2; assay: MIC, broth microdilution; type: cell-based; settings: Klebsiella pneumoniae
[8] = system: K. pneumoniae ST258/KPC-35; assay: In vitro resistance dynamics (stepwise, 7 days); type: cell-based, Klebsiella pneumoniae; settings: stepwise resistance development, MH broth, up to 64× MIC
[9] = system: ST258/KPC-35 mutant IMI 1.1; assay: MIC, broth microdilution; type: cell-based; settings: Klebsiella pneumoniae
[10] = system: ST512/KPC-31 mutant IMI 1.1; assay: MIC, broth microdilution; type: cell-based; settings: Klebsiella pneumoniae
[11] = system: ST512/KPC-31 mutant IMI 1.2; assay: MIC, broth microdilution; type: cell-based; settings: Klebsiella pneumoniae
[12] = system: ST258/KPC-35 mutant IMI 2.2; assay: MIC, broth microdilution; type: cell-based; settings: Klebsiella pneumoniae
[13] = system: K. pneumoniae ST258/KPC-35 (KPC-2 L169P) parental clinical isolate; assay: MIC, broth microdilution; type: cell-based; settings: Klebsiella pneumoniae
E. coli HB4 KPC-3 = assay: MIC of recombinant strains; type: cell-based; settings: Escherichia coli, HB4KPC3; E. coli HB4 expressing KPC-3 in pUCP24
Procedure: (§2) 14.0 (www.eucast.org/clinical_breakpoints).
(§3) Recombinant strains were selected in 10 mg/L of gentamicin-LB agar plates. The β-lactam MICs were determined for the transformants according to the above-described methodology.

E. coli HB4 = assay: MIC of recombinant strains; type: cell-based; settings: Escherichia coli; E. coli HB4 (OmpC- and OmpF-deficient), no KPC
Procedure: as §2, §3

[14] = system: E. coli HB4 KPC-31 (KPC-3 D179Y); assay: MIC of recombinant strains; type: cell-based; settings: Escherichia coli; E. coli HB4 expressing KPC-31 (KPC-3 D179Y) in pUCP24
Procedure: as §2, §3

E. coli HB4 KPC-2 = assay: MIC of recombinant strains; type: cell-based; settings: Escherichia coli, HB4KPC2; E. coli HB4 expressing KPC-2 in pUCP24
Procedure: as §2, §3

E. coli HB4 KPC-2 L169A = assay: MIC of recombinant strains; type: cell-based; settings: Escherichia coli, HB4KPC2L169A; E. coli HB4 expressing KPC-2 L169A in pUCP24
Procedure: as §2, §3

E. coli HB4 KPC-2 L169T = assay: MIC of recombinant strains; type: cell-based; settings: Escherichia coli, HB4KPC2L169T; E. coli HB4 expressing KPC-2 L169T in pUCP24
Procedure: as §2, §3

E. coli HB4 KPC-3 D179N = assay: MIC of recombinant strains; type: cell-based; settings: Escherichia coli, HB4KPC3D179N; E. coli HB4 expressing KPC-3 D179N in pUCP24
Procedure: as §2, §3

[15] = system: E. coli HB4 KPC-35 (KPC-2 L169P); assay: MIC of recombinant strains; type: cell-based; settings: Escherichia coli; E. coli HB4 expressing KPC-35 (KPC-2 L169P) in pUCP24
Procedure: as §2, §3

KPC-3 D179N = target: T1, KPC-3 D179N (Klebsiella pneumoniae, UniProt Q9F663, D178N/H272Y); assay: Specific β-lactamase activity against imipenem, crude extract; type: biochemical; settings: hydrolysis of imipenem by KPC-3 D179N crude extract, 297 nm
T1 construct: made in house; host or cells: E. coli HB4 (porin-deficient), plasmid pUCP24
Procedure: (§4) Cultures were centrifuged at 3,500 × g, 15 min at 4°C, resuspended in 10 mL of phosphate-buffered saline (PBS; pH ~7.4) and sonicated with Ultraschall Prozessor UP 200S Hielscher (Teltow, Germany).

KPC-2 L169T = target: T2, KPC-2 L169T (Klebsiella pneumoniae, UniProt Q9F663, L168T); assay: as above; type: biochemical; settings: hydrolysis of imipenem by KPC-2 L169T crude extract, 297 nm
T2 construct: made in house; host or cells: E. coli HB4 (porin-deficient), plasmid pUCP24
Procedure: as §4

KPC-2 L169A = target: T3, KPC-2 L169A (Klebsiella pneumoniae, UniProt Q9F663, L168A); assay: as above; type: biochemical; settings: hydrolysis of imipenem by KPC-2 L169A crude extract, 297 nm
T3 construct: made in house; host or cells: E. coli HB4 (porin-deficient), plasmid pUCP24
Procedure: as §4

KPC-2 = target: T4, KPC-2 (Klebsiella pneumoniae, UniProt Q9F663); assay: as above; type: biochemical; settings: hydrolysis of imipenem by KPC-2 crude extract, 297 nm
T4 construct: made in house; host or cells: E. coli HB4 (porin-deficient), plasmid pUCP24
Procedure: as §4

KPC-3 = target: T5, KPC-3 (Klebsiella pneumoniae, UniProt Q9F663, H272Y); assay: as above; type: biochemical; settings: hydrolysis of imipenem by KPC-3 crude extract, 297 nm
T5 construct: made in house; host or cells: E. coli HB4 (porin-deficient), plasmid pUCP24
Procedure: as §4

[16] = system: ST258/KPC-35 mutant IMI 3.1; assay: MIC, broth microdilution; type: cell-based; settings: Klebsiella pneumoniae
[17] = system: ST258/KPC-35 mutant IMI 2.1; assay: MIC, broth microdilution; type: cell-based; settings: Klebsiella pneumoniae
[18] = system: ST258/KPC-35 mutant IMI 1.2; assay: MIC, broth microdilution; type: cell-based; settings: Klebsiella pneumoniae
[19] = system: ST512/KPC-31 mutant IMI 3.1; assay: MIC, broth microdilution; type: cell-based; settings: Klebsiella pneumoniae
[20] = system: ST512/KPC-31 mutant IMI 2.2; assay: MIC, broth microdilution; type: cell-based; settings: Klebsiella pneumoniae
[21] = fold higher than the MIC of the parental strain
[22] = relebactam fixed at 4 mg/L in the combination

With `C[C@@H](O)[C@H]1C(=O)N2C(C(=O)O)=C(SCCN=CN)C[C@H]12` [IMI, imipenem] the MIC [1] was > 256 µg/mL, the MIC [2] was 128 µg/mL (≈ 428 µM) and the “Day on which 64× MIC values were reached” value [3] was 5 days. For the same molecule, the MIC [4] was 0.125 µg/mL (≈ 0.418 µM), the “Mutant prevention concentration relative to baseline MIC” value [5, 21] was 64 fold and the Imipenem mutant frequency ([5]; imipenem concentration 2 mg/L) was 1.29×10^−8. For the same molecule, the Imipenem mutant frequency ([5]; imipenem concentration 4 mg/L) was 6.10×10^−10, the Imipenem mutant frequency ([5]; imipenem concentration 8 mg/L) was ≤ 2.44×10^−11 and the Mutant prevention concentration [5, 22] was 8 mg/L. For the same molecule, the “Mutant prevention concentration relative to baseline MIC” value [6, 21] was 16 fold, the Imipenem mutant frequency ([6]; imipenem concentration 2 mg/L) was 8.22×10^−9 and the Imipenem mutant frequency ([6]; imipenem concentration 4 mg/L) was 5.08×10^−10. The Imipenem mutant frequency ([6]; imipenem concentration 8 mg/L) was ≤ 1.69×10^−11, the Mutant prevention concentration [6, 22] was 8 mg/L and the MIC [7] was 32 µg/mL (≈ 107 µM). For the same molecule, the “Day on which 64× MIC values were reached” value [8] was 3 days, the MIC [9] was 256 µg/mL (≈ 855 µM) and the MIC [10] was > 256 µg/mL. For the same molecule, the MIC [11] was > 256 µg/mL, the MIC [12] was > 256 µg/mL and the MIC [13] was 0.5 µg/mL (≈ 1.67 µM). The MIC (E. coli HB4 KPC-3) was 16 µg/mL, the MIC (E. coli HB4) was 0.125 µg/mL and the MIC [14] was 0.25 µg/mL. It also gave an MIC (E. coli HB4 KPC-2) of 32 µg/mL, an MIC (E. coli HB4 KPC-2 L169A) of 8 µg/mL and an MIC (E. coli HB4 KPC-2 L169T) of 16 µg/mL. It also gave an MIC (E. coli HB4 KPC-3 D179N) of 0.25 µg/mL, an MIC [15] of 0.25 µg/mL and a Specific activity (KPC-3 D179N) of 0.02 µmol/min/mg. It also gave a Specific activity (KPC-2 L169T) of 0.13 µmol/min/mg, a Specific activity (KPC-2 L169A) of 0.1 µmol/min/mg and a Specific activity (KPC-2) of 0.55 µmol/min/mg. For the same molecule, the Specific activity (KPC-3) was 2.5 µmol/min/mg, the MIC [16] was 128 µg/mL (≈ 428 µM) and the MIC [17] was > 256 µg/mL. For the same molecule, the MIC [18] was 256 µg/mL (≈ 855 µM), the MIC [19] was 32 µg/mL (≈ 107 µM) and the MIC [20] was > 256 µg/mL.

Source: PMC11619344 (Antimicrobial Agents and Chemotherapy, 2024)
